ChEMBL document CHEMBL1201862, “PubChem BioAssay data set” (2004)
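Following 48 hours of exposure in 96-well plates, responses at five concentrations were used to interpolate endpoints linearly. GI50 = concentration required for 50% inhibition of growth.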 Active and inactive are the calls of the source. No stated cut-off is given here; in the data, active = GI50 up to about 1.1 µM and inactive = higher.

Key:
Assay in all cases: NCI tumour cell line growth inhibition, 48 h
A549 = system: A549
ACHN = system: ACHN
BT-549 = system: BT-549
COLO 205 = system: COLO 205
HOP-62 = system: HOP-62
HOP-92 = system: HOP-92
HT-29 = system: HT-29
Hs-578T = system: Hs-578T
LOX IMVI = system: LOX IMVI
M14 = system: M14
NCI-H522 = system: NCI-H522
NCI/ADR-RES = system: NCI/ADR-RES
SK-MEL-2 = system: SK-MEL-2
SK-MEL-5 = system: SK-MEL-5
SK-OV-3 = system: SK-OV-3
SNB-19 = system: SNB-19
SR = system: SR
SW-620 = system: SW-620
TK-10 = system: TK-10
LXFL 529 = system: LXFL 529

| Structure (SMILES) | GI50 (A549) | GI50 (ACHN) | GI50 (BT-549) | GI50 (COLO 205) | GI50 (HOP-62) | GI50 (HOP-92) | GI50 (HT-29) | GI50 (Hs-578T) | GI50 (LOX IMVI) | GI50 (M14) | GI50 (NCI-H522) | GI50 (NCI/ADR-RES) | GI50 (SK-MEL-2) | GI50 (SK-MEL-5) | GI50 (SK-OV-3) | GI50 (SNB-19) | GI50 (SR) | GI50 (SW-620) | GI50 (TK-10) | GI50 (LXFL 529) |
| --- | --- | --- | --- | --- | --- | --- | --- | --- | --- | --- | --- | --- | --- | --- | --- | --- | --- | --- | --- | --- |
| COCc1nc2c(OC)c(-c3nc4ccc(N5CCN(C)CC5)cc4[nH]3)cc(OC)c2[nH]1 | 48.9 µM (inactive) | 65.9 µM (inactive) | > 100 µM (inactive) | 25.6 µM (inactive) | 32.4 µM (inactive) | > 100 µM (inactive) | 31.5 µM (inactive) | 69.8 µM (inactive) | 18.7 µM (inactive) | 17.4 µM (inactive) | 31.1 µM (inactive) | > 100 µM (inactive) | 27.9 µM (inactive) | 22.2 µM (inactive) | 52.1 µM (inactive) | 48.8 µM (inactive) | 19.7 µM (inactive) | 40.6 µM (inactive) | 84.9 µM (inactive) | – |
| COc1cc(CC2C(=O)OCC2Cc2ccc(OC)c(OC)c2)ccc1O (centres undefined) | > 71.8 µM (inactive) | > 88.9 µM (inactive) | > 55.2 µM (inactive) | > 100 µM (inactive) | > 100 µM (inactive) | 29.5 µM (inactive) | > 100 µM (inactive) | > 100 µM (inactive) | 30.8 µM (inactive) | > 100 µM (inactive) | > 100 µM (inactive) | 43.6 µM (inactive) | > 100 µM (inactive) | 4.42 µM (inactive) | > 100 µM (inactive) | > 100 µM (inactive) | > 100 µM (inactive) | > 100 µM (inactive) | > 100 µM (inactive) | – |
| C=CC/N=C1\NC(=O)C(CC(=O)Nc2ccc(C)cc2)S1 (centres undefined) | > 100 µM (inactive) | > 100 µM (inactive) | – | > 100 µM (inactive) | > 100 µM (inactive) | – | > 100 µM (inactive) | – | > 100 µM (inactive) | > 100 µM (inactive) | > 100 µM (inactive) | – | > 100 µM (inactive) | > 100 µM (inactive) | > 100 µM (inactive) | > 100 µM (inactive) | – | > 100 µM (inactive) | > 100 µM (inactive) | > 100 µM (inactive) |
| N#C/C(=C1\OC(=N)C(c2ccc(Cl)cc2Cl)C1=O)c1ccc(Cl)cc1Cl (centres undefined) | > 100 µM (inactive) | > 100 µM (inactive) | – | > 100 µM (inactive) | – | 80.5 µM (inactive) | > 100 µM (inactive) | – | > 100 µM (inactive) | > 100 µM (inactive) | > 100 µM (inactive) | – | > 100 µM (inactive) | > 100 µM (inactive) | > 100 µM (inactive) | > 100 µM (inactive) | – | > 100 µM (inactive) | > 100 µM (inactive) | > 100 µM (inactive) |
| CCc1ccc(Nc2ccc([N+](=O)[O-])cc2[N+](=O)[O-])cc1 | 40.9 µM (inactive) | > 100 µM (inactive) | – | – | > 100 µM (inactive) | – | 47.3 µM (inactive) | – | – | > 100 µM (inactive) | – | – | > 100 µM (inactive) | 38.6 µM (inactive) | > 100 µM (inactive) | – | – | > 100 µM (inactive) | 73.8 µM (inactive) | 50.9 µM (inactive) |
| C[C@]12CC(C#N)C(=O)C(O)=C1CC[C@@H]1C2CC[C@@]2(C)C1CC[C@@H]2O (some centres undefined) | 47.5 µM (inactive) | 47.2 µM (inactive) | – | 48.5 µM (inactive) | 80.4 µM (inactive) | 10.7 µM (inactive) | > 100 µM (inactive) | – | 27.4 µM (inactive) | 65.5 µM (inactive) | – | – | 51.8 µM (inactive) | 26.3 µM (inactive) | 33.2 µM (inactive) | 83.4 µM (inactive) | – | > 100 µM (inactive) | 27.1 µM (inactive) | 65.5 µM (inactive) |
| N#CC(C(=O)/C(=N/N)C(C#N)c1ccccc1)c1ccccc1 (centres undefined) | > 100 µM (inactive) | > 100 µM (inactive) | – | – | > 100 µM (inactive) | > 100 µM (inactive) | > 100 µM (inactive) | – | > 100 µM (inactive) | > 100 µM (inactive) | > 100 µM (inactive) | – | > 100 µM (inactive) | > 100 µM (inactive) | > 100 µM (inactive) | > 100 µM (inactive) | – | > 100 µM (inactive) | > 100 µM (inactive) | > 100 µM (inactive) |
| CN(C)CCCNc1c2c(=O)n(C)c(=O)nc-2n(C)c2ccccc12 | 4.74 µM (inactive) | 5.45 µM (inactive) | 12.7 µM (inactive) | 3.21 µM (inactive) | 3.75 µM (inactive) | 17 µM (inactive) | 4.26 µM (inactive) | 10.1 µM (inactive) | 3.87 µM (inactive) | 5.02 µM (inactive) | 2.45 µM (inactive) | 67 µM (inactive) | 2.52 µM (inactive) | 6.21 µM (inactive) | 6.24 µM (inactive) | 6.56 µM (inactive) | 3 µM (inactive) | 3.7 µM (inactive) | 5.26 µM (inactive) | – |
| CCC1CC(C)C(O)/C=C/C=C/CC(C)OC(=O)CC(O)C(OC)C1OC1OC(C)CC(O)(C(C)=O)C1O (centres undefined) | > 100 µM (inactive) | 49.5 µM (inactive) | 40.6 µM (inactive) | 63.1 µM (inactive) | 39.7 µM (inactive) | > 100 µM (inactive) | 59.4 µM (inactive) | 19.7 µM (inactive) | > 100 µM (inactive) | 78.5 µM (inactive) | 13.3 µM (inactive) | 49 µM (inactive) | 39.1 µM (inactive) | 69 µM (inactive) | > 100 µM (inactive) | 19.3 µM (inactive) | 14.1 µM (inactive) | > 100 µM (inactive) | 60.8 µM (inactive) | – |
| COC1C(OC(=O)c2ccc(C)[nH]2)C(O)C(Oc2ccc3c(O)c(NC(=O)c4c[nH]c(C(=O)Nc5c(O)c6ccc(OC7OC(C)(C)C(OC)C(OC(=O)c8ccc(C)[nH]8)C7O)c(C)c6oc5=O)c4C)c(=O)oc3c2C)OC1(C)C (centres undefined) | 3.39 µM (inactive) | 2.53 µM (inactive) | – | 1.87 µM (inactive) | – | 2.44 µM (inactive) | 3.9 µM (inactive) | – | 2.77 µM (inactive) | – | – | – | 2.28 µM (inactive) | 2.61 µM (inactive) | 2.15 µM (inactive) | 0.693 µM (active) | – | 4.34 µM (inactive) | 4.86 µM (inactive) | 1.07 µM (active) |
| O=C1C=Cc2c(Br)sc(Br)c21 | 55.1 µM (inactive) | 24.7 µM (inactive) | 27.3 µM (inactive) | 34.2 µM (inactive) | 29.8 µM (inactive) | 24.7 µM (inactive) | 28.2 µM (inactive) | 29.2 µM (inactive) | 20.5 µM (inactive) | 25.9 µM (inactive) | 26.1 µM (inactive) | 36.1 µM (inactive) | 26.9 µM (inactive) | 91.2 µM (inactive) | 88.1 µM (inactive) | > 100 µM (inactive) | 24.7 µM (inactive) | 18 µM (inactive) | 4.78 µM (inactive) | – |
| CC(=O)NCCC1CN(C(=O)/C=C/I)c2ccccc21 (centres undefined) | 17.2 µM (inactive) | 6.59 µM (inactive) | 5.42 µM (inactive) | 3.75 µM (inactive) | 14.2 µM (inactive) | 1.9 µM (inactive) | 5.51 µM (inactive) | 9.66 µM (inactive) | 1.56 µM (inactive) | 3.37 µM (inactive) | 1.39 µM (inactive) | 10.1 µM (inactive) | 3.29 µM (inactive) | 7.57 µM (inactive) | 14.7 µM (inactive) | 14.8 µM (inactive) | 2.9 µM (inactive) | 2.1 µM (inactive) | 1.42 µM (inactive) | – |
| CC1=Nc2ccccc2/C1=C\c1c(C)[nH]c2ccccc12 | 23.1 µM (inactive) | 15.7 µM (inactive) | 3.55 µM (inactive) | 19.1 µM (inactive) | 23.2 µM (inactive) | 3.73 µM (inactive) | 12.8 µM (inactive) | 8.63 µM (inactive) | 13.1 µM (inactive) | 23.2 µM (inactive) | 10 µM (inactive) | 16.2 µM (inactive) | 17.8 µM (inactive) | 14.1 µM (inactive) | 15.6 µM (inactive) | 16.6 µM (inactive) | 5.9 µM (inactive) | 11 µM (inactive) | 16.3 µM (inactive) | – |
| O/N=C(/CC(O)(C(F)(F)F)C(F)(F)F)c1ccccc1 | > 10 µM (inactive) | > 10 µM (inactive) | > 10 µM (inactive) | > 10 µM (inactive) | > 10 µM (inactive) | > 10 µM (inactive) | > 10 µM (inactive) | > 10 µM (inactive) | > 10 µM (inactive) | > 10 µM (inactive) | > 10 µM (inactive) | > 10 µM (inactive) | > 10 µM (inactive) | 2.1 µM (inactive) | > 10 µM (inactive) | > 10 µM (inactive) | > 10 µM (inactive) | > 10 µM (inactive) | > 10 µM (inactive) | – |
| COc1ccc2nc3c([N+](=O)[O-])ccc4c3c(c2c1)N=CN4CCN(C)C | 3.44 µM (inactive) | 3.66 µM (inactive) | 12 µM (inactive) | 2.34 µM (inactive) | 3.17 µM (inactive) | 5.06 µM (inactive) | 2.52 µM (inactive) | 6.73 µM (inactive) | 3.38 µM (inactive) | 4.8 µM (inactive) | 2.03 µM (inactive) | 3.18 µM (inactive) | 9.23 µM (inactive) | 2.53 µM (inactive) | 9.27 µM (inactive) | 6.85 µM (inactive) | 0.168 µM (active) | 3.3 µM (inactive) | 6.34 µM (inactive) | – |
| CO[C@H]1[C@@H](O)[C@@H](C)O[C@@H](O[C@H]2CC[C@@]3(C)[C@H](CC[C@@H]4[C@@H]3CC[C@]3(C)[C@@H](C5=CC(=O)OC5)CC[C@]43O)C2)[C@@H]1O [ODOROSIDE H] | 0.00288 µM (active) | 0.00304 µM (active) | 0.00514 µM (active) | 0.0366 µM (active) | 0.00361 µM (active) | 0.0127 µM (active) | 0.00573 µM (active) | 0.00454 µM (active) | 0.00689 µM (active) | 0.0137 µM (active) | < 0.0025 µM (active) | 0.00548 µM (active) | 0.0169 µM (active) | 0.00509 µM (active) | 0.00964 µM (active) | 0.0215 µM (active) | 0.00304 µM (active) | < 0.0025 µM (active) | 0.00336 µM (active) | – |
